In patent US8673265B2, “Carbonylporphyrins and uses thereof” (Brookhaven Science Associates, LLC, priority 2006, dated 2014):

Columns and labels:
EMT-6 mammary carcinomas = test: Biodistribution (boron concentrations in tissues) in mice bearing EMT-6 carcinomas; format: in vivo, BALB/c mice; settings: for Average boron concentration, Blood / Average boron concentration, Brain / Average boron concentration, Heart / Average boron concentration, Kidneys / Average boron concentration, Liver / Average boron concentration, Skin (pinna) / Average boron concentration, Spleen / Average boron concentration, Tumor / Average boron concentration, Feces / Average boron concentration, Lungs: 3 i.p. injections over 8 hours
Experimental: BALB/c mice bearing subcutaneously implanted EMT-6 mammary carcinomas implanted on the dorsal thorax were given a total dose of 105 milligrams porphyrin compound V per kilogram body weight (23.7 mg B/kg). At one and two days after the last injection, mice were euthanized, and tumor, blood, brain, and liver were removed for boron analyses. The blood was first analyzed for hematologic parameters that indicate toxicity before it was analyzed for boron.
Similar to Example 8, Compound VII was given, to tumor-bearing mice except at a slightly higher total dose of 143 mg/kg body weight in 3 i.p. injections given over a period of 8 hours.

[1] = Weight changes and hematologic parameters in mice; format: in vivo, BALB/c mice
[2] = 105 mg/kg (23.7 mg B/kg), 1 day after last injection
[3] = 105 mg/kg (23.7 mg B/kg), 2 days after last injection
[4] = 143 mg/kg (30 mg B/kg), 1 day after last injection
[5] = 143 mg/kg (30 mg B/kg), 2 days after last injection

Copper (II) 5,15-dinitro-10,20-bis(3-[o-carboranylmethoxy]phenyl)porphyrin [Porphyrin compound V]
Average boron concentration, Blood (EMT-6 mammary carcinomas; [2]): 34.6 ± 26.9 μg B/g | Average boron concentration, Brain (EMT-6 mammary carcinomas; [2]): 0.5 ± 0.4 μg B/g | Average boron concentration, Heart (EMT-6 mammary carcinomas; [2]): 9.1 ± 3.8 μg B/g | Average boron concentration, Kidneys (EMT-6 mammary carcinomas; [2]): 12.7 ± 6.9 μg B/g | Average boron concentration, Liver (EMT-6 mammary carcinomas; [2]): 145 ± 18 μg B/g | Average boron concentration, Skin (pinna) (EMT-6 mammary carcinomas; [2]): 3.6 ± 13.0 μg B/g | Average boron concentration, Spleen (EMT-6 mammary carcinomas; [2]): 76.1 ± 8.6 μg B/g | Average boron concentration, Tumor (EMT-6 mammary carcinomas; 105 mg/kg (23.7 mg B/kg), 1 day after last injection, wet tissue): 39.2 ± 14.4 μg B/g | Average boron concentration, Blood (EMT-6 mammary carcinomas; [3]): 1.5 ± 0.4 μg B/g | Average boron concentration, Brain (EMT-6 mammary carcinomas; [3]): 0.1 ± 0.1 μg B/g | Average boron concentration, Feces (EMT-6 mammary carcinomas; [3]): 15.2 ± 20.8 μg B/g | Average boron concentration, Heart (EMT-6 mammary carcinomas; [3]): 7.5 ± 0.6 μg B/g | Average boron concentration, Kidneys (EMT-6 mammary carcinomas; [3]): 7.1 ± 0.5 μg B/g | Average boron concentration, Liver (EMT-6 mammary carcinomas; [3]): 226 ± 25 μg B/g | Average boron concentration, Lungs (EMT-6 mammary carcinomas; [3]): 8.5 ± 3.0 μg B/g | Average boron concentration, Skin (pinna) (EMT-6 mammary carcinomas; [3]): 4.8 ± 1.6 μg B/g | Average boron concentration, Spleen (EMT-6 mammary carcinomas; [3]): 158 ± 19 μg B/g | Average boron concentration, Tumor (EMT-6 mammary carcinomas; [3]): 49.8 ± 12.9 μg B/g | amount of boron delivered to the tumor (EMT-6 mammary carcinomas; porphyrin dose ~100 mg/kg (24 mg/kg B)): ~50 ppm | percentage of injected dose in tumor per gram of wet tissue (EMT-6 mammary carcinomas; ~100 mg/kg (24 mg/kg B), EMT-6 tumor model): ~10.5 %/g | % Weight change [1, 2]: −0.8 ± 1.8% | Platelet count [1, 2]: 1349 ± 294 m/m^3 | White blood count [1, 2]: 9.9 ± 2.6 m/m^3 | % Weight change [1, 3]: −1.7 ± 1.7% | Platelet count [1, 3]: 515 ± 160 m/m^3 | White blood count [1, 3]: 11.8 ± 1.8 m/m^3

copper (II) 5,15-dibromo-10,20-bis(3-[o-carboranylmethoxy]phenyl)porphyrin [Porphyrin compound VII]
Average boron concentration, Blood (EMT-6 mammary carcinomas; [4]): 105 ± 20 μg B/g | Average boron concentration, Brain (EMT-6 mammary carcinomas; [4]): 1.9 ± 0.5 μg B/g | Average boron concentration, Feces (EMT-6 mammary carcinomas; [4]): 11.2 ± 2.3 μg B/g | Average boron concentration, Heart (EMT-6 mammary carcinomas; [4]): 20.4 ± 4.6 μg B/g | Average boron concentration, Kidneys (EMT-6 mammary carcinomas; [4]): 38.7 ± 7.0 μg B/g | Average boron concentration, Liver (EMT-6 mammary carcinomas; [4]): 183 ± 19 μg B/g | Average boron concentration, Lungs (EMT-6 mammary carcinomas; [4]): 35.8 ± 3.7 μg B/g | Average boron concentration, Skin (pinna) (EMT-6 mammary carcinomas; [4]): 9.2 ± 1.8 μg B/g | Average boron concentration, Spleen (EMT-6 mammary carcinomas; [4]): 107 ± 11 μg B/g | Average boron concentration, Tumor (EMT-6 mammary carcinomas; [4]): 67.1 ± 8.5 μg B/g | Average boron concentration, Blood (EMT-6 mammary carcinomas; [5]): 12.1 ± 9.7 μg B/g | Average boron concentration, Brain (EMT-6 mammary carcinomas; [5]): 0.1 ± 0.2 μg B/g | Average boron concentration, Feces (EMT-6 mammary carcinomas; [5]): 4.9 ± 0.6 μg B/g | Average boron concentration, Heart (EMT-6 mammary carcinomas; [5]): 9.4 ± 1.1 μg B/g | Average boron concentration, Kidneys (EMT-6 mammary carcinomas; [5]): 13.0 ± 3.6 μg B/g | Average boron concentration, Liver (EMT-6 mammary carcinomas; [5]): 263 ± 34 μg B/g | Average boron concentration, Lungs (EMT-6 mammary carcinomas; [5]): 17.8 ± 6.2 μg B/g | Average boron concentration, Skin (pinna) (EMT-6 mammary carcinomas; [5]): 7.7 ± 1.7 μg B/g | Average boron concentration, Spleen (EMT-6 mammary carcinomas; [5]): 160 ± 15 μg B/g | Average boron concentration, Tumor (EMT-6 mammary carcinomas; [5]): 76.9 ± 14.1 μg B/g | % Weight change [1, 4]: −0.3 ± 1.4% | Platelet count [1, 4]: 1461 ± 229 m/m^3 | White blood count [1, 4]: 8.8 ± 1.3 m/m^3 | % Weight change [1, 5]: 0.2 ± 2.2% | Platelet count [1, 5]: 790 ± 227 m/m^3 | White blood count [1, 5]: 11.8 ± 1.8 m/m^3 | toxicity associated with the porphyrin ([1]; 143 mg/kg dose): little if any toxicity
